Source: patent US20230090223A1, “NANOPARTICLES FOR USE IN THE TREATMENT AND DIAGNOSIS OF CNS DISORDERS” (priority 2020, published 2023)

Experiment: Relaxivity measurement, 1.0 T MRI scanner
Assay type: physicochemical
Conditions: room temperature
Description: A relaxivity study was performed by evaluating the longitudinal relaxation time T1 of HP—Au—Gd nanoparticles at different Gd concentrations at room temperature by using a 1.0 T-MRI scanner (ICON, Bruker Biospin, Ettlingen, Germany). The commercially available gadolinium contrast agent (Gadopentetic acid or Gd-DTPA) was used as the positive control. The contrast agents were initially placed into syringes and set in the center of the volume coil. The sample temperature was maintained at room temperature. By using the MRI scanner, horizontal single-slice T1-weighted MR images were acquired (spin echo, TR/TE=400/10 ms, slice thickness=2.0 mm, matrix=256×256, field of view (FOV)=38.4×38.4 mm, number of averages (NA)=10, number of slices=1). Horizontal single-slice inversion-recovery MRI was done to calculate the T1 and r1 by using rapid acquisition with relaxation enhancement (RARE) acquisition (TR=20,000 ms, TE=17 ms, inversion time=45, 100, 200, 400, 800, 1600, 3200, 6400, 8000, 10000, 12000 ms, matrix size=64×64, FOV=38.4×38.4 mm, slice thickness=2.0 mm, RARE factor=4, and NA=1). Then, the r1 relaxivities were calculated by using the following equation: r1=(1/T1-1/T1(0))/[Gd] where [Gd] is the concentration of Gd, and 1/T1(0) and 1/T1 are the longitudinal relaxation rate without and with paramagnetic species, respectively.

r1 relaxivity: 3.26 mM⁻¹ s⁻¹
SMILES: CNC[C@H](O)[C@@H](O)[C@H](O)[C@H](O)CO.CNC[C@H](O)[C@@H](O)[C@H](O)[C@H](O)CO.O=C([O-])CN(CCN(CC(=O)[O-])CC(=O)O)CCN(CC(=O)[O-])CC(=O)O.[Gd+3] [Gd-DTPA, Gadopentetic acid]
